Assay results taken from PubChem BioAssay AID330 (DTP/NCI, 2004).
Where “and” joins values, the source holds several entries; their conditions need not be identical. Equal values may be shown once. Toxic doses and inconclusive results are not listed. Rule for the calls: active = survival T/C of 150% or more; inactive = T/C below 125% in these data.

Test system: P388 leukemia ip, CD2F1 mice, survival T/C
Assay: NCI In Vivo Anticancer Drug Screen. Data for tumor model P388 Leukemia (intraperitoneal) in CD2F1 (CDF1) mice
Conditions: endpoint: median survival time, higher = longer survival
How it was run: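 Mice carrying the transplanted tumor received test compound or vehicle. Survival was recorded in each group, and the value is the treated-group measurement divided by that of the vehicle-treated control group.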

[1] = dose: 50.0 mg/kg/injection, schedule: Q01DX009 (ip), vehicle: saline
[2] = dose: 100.0 mg/kg/injection, schedule: Q01DX009 (ip), vehicle: saline
[3] = dose: 60.0 mg/kg/injection, schedule: Q01DX005 (ip), vehicle: Klucel (hydroxypropylcellulose) (HPC)
[4] = dose: 120.0 mg/kg/injection, schedule: Q01DX005 (ip), vehicle: Klucel (hydroxypropylcellulose) (HPC)
[5] = dose: 240.0 mg/kg/injection, schedule: Q01DX005 (ip), vehicle: Klucel (hydroxypropylcellulose) (HPC)
[6] = dose: 12.5 mg/kg/injection, schedule: Q01DX009 (ip), vehicle: Klucel (hydroxypropylcellulose) (HPC)
[7] = dose: 25.0 mg/kg/injection, schedule: Q01DX009 (ip), vehicle: Klucel (hydroxypropylcellulose) (HPC)
[8] = dose: 50.0 mg/kg/injection, schedule: Q01DX009 (ip), vehicle: Klucel (hydroxypropylcellulose) (HPC)
[9] = dose: 50.0 mg/kg/injection, schedule: Q01DX005 (ip), vehicle: saline with Tween-80
[10] = dose: 100.0 mg/kg/injection, schedule: Q01DX005 (ip), vehicle: saline with Tween-80
[11] = dose: 50.0 mg/kg/injection, schedule: Q01DX009 (ip), vehicle: saline with Tween-80
[12] = dose: 100.0 mg/kg/injection, schedule: Q01DX009 (ip), vehicle: saline with Tween-80
[13] = dose: 200.0 mg/kg/injection, schedule: Q01DX009 (ip), vehicle: saline with Tween-80
[14] = dose: 200.0 mg/kg/injection, schedule: Q01DX005 (ip), vehicle: saline with Tween-80
[15] = dose: 12.5 mg/kg/injection, schedule: Q01DX009 (ip), vehicle: saline with Tween-80
[16] = dose: 25.0 mg/kg/injection, schedule: Q01DX009 (ip), vehicle: saline with Tween-80
[17] = dose: 50.0 mg/kg/injection, schedule: Q01DX005 (ip), vehicle: Klucel (hydroxypropylcellulose) (HPC)
[18] = dose: 100.0 mg/kg/injection, schedule: Q01DX005 (ip), vehicle: Klucel (hydroxypropylcellulose) (HPC)
[19] = dose: 200.0 mg/kg/injection, schedule: Q01DX005 (ip), vehicle: Klucel (hydroxypropylcellulose) (HPC)

Measured: T/C

CN(C)C(=O)c1cc(C(=O)N(C)C)cc2cccc-2c1
inactive: dose: 25.0 mg/kg/injection, schedule: Q04DX002 (ip), vehicle: saline 102 % of control | dose: 50.0 mg/kg/injection, schedule: Q04DX002 (ip), vehicle: saline 98 % of control | dose: 100.0 mg/kg/injection, schedule: Q04DX002 (ip), vehicle: saline 99 % of control and 97 % of control

COc1cc(/C=N/N2CC(=O)N(c3cccc(Cl)c3)CC2=O)cc(OC)c1
inactive: dose: 7.5 mg/kg/injection, schedule: Q01DX005 (ip), vehicle: saline with Tween-80 95 % of control | dose: 15.0 mg/kg/injection, schedule: Q01DX005 (ip), vehicle: saline with Tween-80 96 % of control | dose: 30.0 mg/kg/injection, schedule: Q01DX005 (ip), vehicle: saline with Tween-80 94 % of control

CC(=O)OC1CC(O)CC2=CCC3C4CCC(C(C)(O)C(O)CC5COC(=O)C5C)C4(C)CCC3C21C (stereo not drawn)
inactive: dose: 4.0 mg/kg/injection, schedule: Q01DX005 (ip), vehicle: distilled water + Tween-80 96 % of control | dose: 8.0 mg/kg/injection, schedule: Q01DX005 (ip), vehicle: distilled water + Tween-80 95 % of control | dose: 16.0 mg/kg/injection, schedule: Q01DX005 (ip), vehicle: distilled water + Tween-80 96 % of control | dose: 32.0 mg/kg/injection, schedule: Q01DX005 (ip), vehicle: distilled water + Tween-80 91 % of control and 97 % of control | dose: 64.0 mg/kg/injection, schedule: Q01DX005 (ip), vehicle: distilled water + Tween-80 87 % of control and 94 % of control

O=C1Nc2ccccc2S/C1=C\c1ccccc1C(F)(F)F
inactive: [1] 108 % of control | [2] 106 % of control

CCC(C)(C)c1ccc(OCCCCNC(=O)c2ccc3ccccc3c2O)c(C(C)(C)CC)c1
inactive: [3] 90 % of control | [4] 89 % of control | [5] 86 % of control

C=CCNSc1cccc([N+](=O)[O-])c1
inactive: dose: 6.25 mg/kg/injection, schedule: Q01DX009 (ip), vehicle: Klucel (hydroxypropylcellulose) (HPC) 121 % of control | [6] 120 % of control | [7] 121 % of control | [8] 102 % of control and 103 % of control and 115 % of control

O=c1ccc2cc3ccoc3c(OCCCCCCCCCCCCOc3c4occc4cc4ccc(=O)oc34)c2o1
inactive: dose: 6.25 mg/kg/injection, schedule: Q01DX005 (ip), vehicle: saline with Tween-80 100 % of control | dose: 12.5 mg/kg/injection, schedule: Q01DX005 (ip), vehicle: saline with Tween-80 100 % of control | dose: 25.0 mg/kg/injection, schedule: Q01DX005 (ip), vehicle: saline with Tween-80 88 % of control

O=C(O)CC[S-].[Ag+]
inactive: dose: 100.0 mg/kg/injection, schedule: Q04DX003 (ip), vehicle: saline 100 % of control | dose: 200.0 mg/kg/injection, schedule: Q04DX003 (ip), vehicle: saline 100 % of control | dose: 400.0 mg/kg/injection, schedule: Q04DX003 (ip), vehicle: saline 95 % of control

CN(C)C=Nc1ccccc1
inactive: [1] 103 % of control | [2] 103 % of control | dose: 200.0 mg/kg/injection, schedule: Q01DX009 (ip), vehicle: saline 108 % of control

Cc1cc(Cl)c(C)c(Cl)c1Cl
inactive: dose: 100.0 mg/kg/injection, schedule: Q04DX003 (ip), vehicle: saline with Tween-80 95 % of control | dose: 200.0 mg/kg/injection, schedule: Q04DX003 (ip), vehicle: saline with Tween-80 95 % of control | dose: 400.0 mg/kg/injection, schedule: Q04DX003 (ip), vehicle: saline with Tween-80 91 % of control

CC(=O)OC(C(=O)C=[N+]=[N-])C(OC(C)=O)C(OC(C)=O)C(=O)C=[N+]=[N-] (stereo not drawn)
inactive: [8] 99 % of control | dose: 100.0 mg/kg/injection, schedule: Q01DX009 (ip), vehicle: Klucel (hydroxypropylcellulose) (HPC) 113 % of control | dose: 200.0 mg/kg/injection, schedule: Q01DX009 (ip), vehicle: Klucel (hydroxypropylcellulose) (HPC) 108 % of control

Cc1nc(-c2ccccc2)nc2c1nc(C(C)C)n2Nc1ccccc1
inactive: [9] 96 % of control | [10] 98 % of control

NN1C(=O)c2ccccc2C1=O
inactive: [11] 96 % of control | [12] 112 % of control | [13] 95 % of control | dose: 400.0 mg/kg/injection, schedule: Q01DX009 (ip), vehicle: saline with Tween-80 99 % of control

O=C(NC1c2ccccc2Oc2ccccc21)c1ccccc1
inactive: dose: 12.5 mg/kg/injection, schedule: Q04DX003 (ip), vehicle: distilled water + Tween-80 93 % of control | dose: 25.0 mg/kg/injection, schedule: Q04DX003 (ip), vehicle: distilled water + Tween-80 92 % of control | dose: 50.0 mg/kg/injection, schedule: Q04DX003 (ip), vehicle: distilled water + Tween-80 93 % of control | dose: 100.0 mg/kg/injection, schedule: Q04DX003 (ip), vehicle: distilled water + Tween-80 93 % of control

O=Cc1ccc(O)c(O)c1
inactive: [1] 106 % of control and 109 % of control | [2] 110 % of control | dose: 400.0 mg/kg/injection, schedule: Q01DX009 (ip), vehicle: saline 107 % of control

CN(OC(=O)C(C)(C)C)C(=O)C(C)(C)C
inactive: [10] 106 % of control | [14] 105 % of control | dose: 400.0 mg/kg/injection, schedule: Q01DX005 (ip), vehicle: saline with Tween-80 108 % of control

CC(c1ccccc1)C(OC(=O)c1ccc([N+](=O)[O-])cc1)c1ccccc1 (stereo not drawn)
inactive: [15] 100 % of control | [16] 100 % of control | [11] 90 % of control

CC(O)C1CCNCC1 (stereo not drawn)
inactive: dose: 50.0 mg/kg/injection, schedule: Q01DX005 (ip), vehicle: saline 102 % of control | dose: 100.0 mg/kg/injection, schedule: Q01DX005 (ip), vehicle: saline 97 % of control

COc1cc(/C=C/C(C)=N/NC(N)=O)cc(OC)c1OC
inactive: dose: 30.0 mg/kg/injection, schedule: Q01DX005 (ip), vehicle: Klucel (hydroxypropylcellulose) (HPC) 103 % of control | [3] 100 % of control | [4] 103 % of control | [5] 104 % of control

CC(C)(Oc1ccc(C(=O)c2ccc(Cl)cc2)cc1)C(=O)O
inactive: [11] 93 % of control | [12] 102 % of control | [13] 111 % of control

O=S(=O)(OCCF)c1cc(Cl)c(Cl)cc1Cl
inactive: dose: 12.5 mg/kg/injection, schedule: Q01DX005 (ip), vehicle: Klucel (hydroxypropylcellulose) (HPC) 98 % of control | dose: 25.0 mg/kg/injection, schedule: Q01DX005 (ip), vehicle: Klucel (hydroxypropylcellulose) (HPC) 98 % of control | [17] 89 % of control

O=C1CC(O)C(Cc2ccccc2)N1 (stereo not drawn)
inactive: [9] 97 % of control | [10] 98 % of control | [14] 97 % of control

CC(=O)Oc1cc(C)c2c(c1C)C1OC(=O)C(C)C1CC2 (stereo not drawn)
inactive: [17] 100 % of control | [18] 103 % of control | [19] 98 % of control

CCOC(=O)c1cc2c(=O)oc3ccccc3c2oc1=O
inactive: [15] 105 % of control | [16] 98 % of control | [11] 100 % of control

C[N+]12OC3CCC(O)CC1CCCC2C3 (stereo not drawn)
inactive: dose: 100.0 mg/kg/injection, schedule: Q01DX001 (ip), vehicle: water 100 % of control

O=C(CN1CCOCC1)c1cc2c(c3ccccc13)CCCC2
inactive: [17] 94 % of control | [18] 99 % of control | [19] 96 % of control

CSc1cnnc2ccccc12
inactive: [6] 100 % of control and 95 % of control | [7] 100 % of control and 109 % of control and 88 % of control | [8] 100 % of control and 87 % of control

O=C(O)C(Cc1cccc(F)c1)NC(=O)C(F)(F)F (stereo not drawn)
inactive: dose: 6.25 mg/kg/injection, schedule: Q01DX009 (ip), vehicle: saline 98 % of control

O=C(O)CCCC(=O)NC1CC2c3ccccc3C1c1ccccc12 (stereo not drawn)
inactive: dose: 75.0 mg/kg/injection, schedule: Q01DX009 (ip), vehicle: saline with Tween-80 100 % of control | dose: 100.0 mg/kg/injection, schedule: Q04DX003 (ip), vehicle: saline sonified 100 % of control | dose: 150.0 mg/kg/injection, schedule: Q01DX009 (ip), vehicle: saline with Tween-80 100 % of control | dose: 200.0 mg/kg/injection, schedule: Q04DX003 (ip), vehicle: saline sonified 105 % of control | dose: 400.0 mg/kg/injection, schedule: Q04DX003 (ip), vehicle: saline sonified 100 % of control
